In the supplement of paper PMC10307832:

Experiments:
Assay in all cases: relative viability (nuclei count vs DMSO), 5 days (fraction); higher = more cells survive
XMD8-85 + Pictilisib = compound: CN1CCN(CC1)C2=CC(=C(C=C2)NC3=NC=C4C(=N3)N(C5=CC=CC=C5C(=O)N4C)C)OC [XMD8-85] + CS(=O)(=O)N1CCN(Cc2cc3nc(-c4cccc5[nH]ncc45)nc(N4CCOCC4)c3s2)CC1 [Pictilisib] (partner 1 µM)
Method in brief: (§1)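 Lung cancer cell lines in 1536-well plates were dosed by pin tool the day after seeding, either with one drug alone or with a fixed anchor-drug dose plus five library-drug doses (not always all listed) in √10 steps. After 5 days, cells were fixed and their nuclei stained in one step (final 0.05% Triton X-100, 1% formaldehyde, 1 ug/ml Hoechst), then counted on 4× images. Relative viability is the nuclei count in treated wells divided by that in vehicle wells. Values are medians of duplicate plates.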

4EGI-1 + Phenformin = compound: O=C(O)C(Cc1ccccc1[N+](=O)[O-])=NNc1nc(-c2ccc(Cl)c(Cl)c2)cs1 (mixture of isomers) [4EGI-1] + N=C(N)NC(=N)NCCc1ccccc1 [Phenformin] (partner 250 µM)
Method in brief: as §1

XMD8-85 + AZD7762 = compound: CN1CCN(CC1)C2=CC(=C(C=C2)NC3=NC=C4C(=N3)N(C5=CC=CC=C5C(=O)N4C)C)OC [XMD8-85] + NC(=O)Nc1cc(-c2cccc(F)c2)sc1C(=O)N[C@H]1CCCNC1 [AZD7762] (partner 0.2 µM)
Method in brief: as §1

XMD8-85 + Trametinib = compound: CN1CCN(CC1)C2=CC(=C(C=C2)NC3=NC=C4C(=N3)N(C5=CC=CC=C5C(=O)N4C)C)OC [XMD8-85] + CC(=O)Nc1cccc(-n2c(=O)n(C3CC3)c(=O)c3c(Nc4ccc(I)cc4F)n(C)c(=O)c(C)c32)c1 [Trametinib] (partner 0.02 µM)
Method in brief: as §1

Cell Line	relative viability (XMD8-85 + Pictilisib; first compound 0.08 µM)	relative viability (XMD8-85 + Pictilisib; first compound 0.253 µM)	relative viability (XMD8-85 + Pictilisib; first compound 0.8 µM)	relative viability (XMD8-85 + Pictilisib; first compound 2.53 µM)	relative viability (XMD8-85 + Pictilisib; first compound 8 µM)	relative viability (4EGI-1 + Phenformin; first compound 0.5 µM)	relative viability (4EGI-1 + Phenformin; first compound 1.581 µM)	relative viability (4EGI-1 + Phenformin; first compound 5 µM)	relative viability (4EGI-1 + Phenformin; first compound 15.81 µM)	relative viability (4EGI-1 + Phenformin; first compound 50 µM)	relative viability (XMD8-85 + AZD7762; first compound 0.08 µM)	relative viability (XMD8-85 + AZD7762; first compound 0.253 µM)	relative viability (XMD8-85 + AZD7762; first compound 0.8 µM)	relative viability (XMD8-85 + AZD7762; first compound 2.53 µM)	relative viability (XMD8-85 + AZD7762; first compound 8 µM)	relative viability (XMD8-85 + Trametinib; first compound 0.08 µM)	relative viability (XMD8-85 + Trametinib; first compound 0.253 µM)	relative viability (XMD8-85 + Trametinib; first compound 0.8 µM)	relative viability (XMD8-85 + Trametinib; first compound 2.53 µM)	relative viability (XMD8-85 + Trametinib; first compound 8 µM)
201T	0.635	0.677	0.723	0.746	0.556	0.456	0.475	0.427	0.45	0.428	0.566	0.651	0.669	0.698	0.575	0.718	0.746	0.738	0.681	0.617
A-427	0.683	0.808	0.813	0.737	0.527	0.331	0.316	0.326	0.274	0.156		0.81	0.675	0.63	0.478	0.755	0.731	0.697	0.714	0.631
BEN	0.535	0.547		0.483	0.38	0.278	0.267	0.281	0.241	0.269	0.831	0.661	0.691	0.653	0.463	0.866	1	0.983	0.829	0.681
CAL-12T	0.396	0.541	0.393	0.395	0.321	0.578	0.465	0.609	0.527	0.179	0.545	0.642	0.604		0.466	0.32	0.404		0.302	0.379
ChaGo-K-1	0.808	0.692	0.689	0.697	0.303	0.447	0.439	0.543	0.49	0.351	0.825	0.883	0.855	0.903	0.91	0.926	0.908	0.944	0.962	0.668
EKVX	0.454	0.467	0.416	0.451	0.441	0.223	0.213	0.234	0.189	0.215	0.685	0.742	0.67	0.729	0.646	0.56	0.327	0.437	0.47	0.374
EMC-BAC-2	0.493	0.569	0.527	0.589	0.451	0.664	0.524	0.612	0.608	0.385	1.16	1.03	1.04	1.1	0.789	0.901	0.879	0.895	0.828	0.67
EPLC-272H		0.324	0.318	0.327	0.267	0.348		0.302	0.273	0.158	0.209	0.16	0.362	0.229	0.273	0.276	0.271	0.272	0.313	0.251
H3255	0.565	0.465		0.531	0.414	0.424	0.347	0.385	0.308	0.324	0.979	0.868	0.894	0.925	0.554	0.576	0.593	0.465	0.554	0.373
HARA	0.47	0.473	0.455	0.436	0.259	0.593	0.506	0.497	0.41	0.376	0.314	0.269	0.303	0.283	0.273	0.9	0.78	0.578	0.21	0.33
HCC-15	0.684	0.691	0.76	0.728	0.616	0.494		0.473	0.47	0.161	1.16	1.06	1.13	1.12	1.02	0.396	0.315	0.408	0.408	0.287
HCC-44	0.616	0.548	0.767	0.783	0.452	0.184		0.192	0.118	0.137	1.05	1.06	1	1.01	1.06	1.11	1.12	1.12	1.04	1.01
HCC-78	0.267	0.22	0.228	0.206	0.192	0.812		0.741	0.668	0.658	0.556	0.582	0.728	1.13	0.499	1.14	1.02	0.735	0.536	0.402
HCC-366	0.137	0.239	0.146	0.168	0.304	0.676	0.569	0.741	0.631	0.443	0.216	0.311	0.335	0.336	0.259	0.33	0.35	0.467	0.324	0.307
HCC-827	1.16	1.03	0.902	1.11	1.15	0.403	0.394	0.396		0.353	0.23	0.185	0.231	0.263	0.206	0.55	0.461	0.528	0.512	0.496
HOP-62	0.734	0.723	0.858	0.559	0.232	0.677	0.446	0.73	0.667	0.537	0.497	0.708	0.523		0.421	0.368	0.378	0.34	0.339	0.129
